For test [1], the system named is lambsquarters. Put plainly: Test Example 5: herbicidal effect by foliage application, plastic box (Table 20, symbol O). In kind it is in vivo, lambsquarters (Chenopodium album). The conditions noted are these: foliage application, 320 g/ha. A digest of the protocol:
(§1)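 Foliar spray test: emulsion formulation diluted in water to a set application rate, sprayed onto 14-day-old plants raised in diluvial soil at 25° C to 30° C under glass. Both herbicidal effect and crop effect rated visually three weeks later.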

A further test concerns blackgrass. Put plainly: Test Example 5: herbicidal effect by foliage application, plastic box (Table 20, symbol J). In kind it is in vivo, blackgrass (Alopecurus myosuroides). The conditions noted are these: foliage application, 320 g/ha. A digest of the protocol:
as §1

The subject of test [2] is Japanese bulrush. Put plainly: Test Example 1: herbicidal activity, application before weed generation under submerged conditions (Table 16, symbol B). In kind it is in vivo, Japanese bulrush (Schoenoplectus juncoides). The conditions noted are these: 320 g/ha applied herbicide. The essentials:
(§2)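 Alluvial soil was flooded to 4 cm depth, weed seeds were sown mixed and 2.5-leaf rice seedlings were transplanted. On sowing day, the compound's emulsion, diluted in water to a set dose, was applied to the water surface. Plants grew at 25–30 °C and were scored 0–5 after three weeks.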

Test [3] relates to barnyard grass. Briefly: Test Example 4: herbicidal effect by soil treatment (Table 19, symbol H). The format is in vivo, barnyard grass (Echinochloa crus-galli). The conditions noted are these: amount of applied herbicide 320 g/ha. A digest of the protocol:
(§3)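 Herbicidal effect was rated 3 weeks after treatment, using the scoring criteria of an earlier test. The compound, formulated as an emulsion and diluted in water to a set herbicide amount, had been sprayed uniformly on soil over freshly sown seeds. Growth took place in a greenhouse at 25° C. to 30° C.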

Test [4] concerns windgrass. Put plainly: Test Example 5: herbicidal effect by foliage application, plastic box (Table 20, symbol L). In kind it is in vivo, windgrass (Apera spica-venti). The conditions noted are these: foliage application, 320 g/ha, three weeks after application. The essentials:
as §1

Test [5] concerns lambsquarters. Put plainly: Test Example 4: herbicidal effect by soil treatment (Table 19, symbol O). In kind it is in vivo, lambsquarters (Chenopodium album). The conditions noted are these: amount of applied herbicide 320 g/ha. A digest of the protocol:
as §3

For a further test, the system named is southern crabgrass. Put plainly: Test Example 4: herbicidal effect by soil treatment (Table 19, symbol F). The conditions noted are these: amount of applied herbicide 320 g/ha. The format is in vivo, southern crabgrass (Digitaria ciliaris). A digest of the protocol: as §3
The test system of a further test is late watergrass. Briefly: Test Example 1: herbicidal activity, application before weed generation under submerged conditions (Table 16, symbol A). The conditions noted are these: 320 g/ha applied herbicide. In kind it is in vivo, late watergrass (Echinochloa oryzicola). A digest of the protocol: as §2
A further test concerns chickweed. Put plainly: Test Example 5: herbicidal effect by foliage application, plastic box (Table 20, symbol P). In kind it is in vivo, common chickweed (Stellaria media). The conditions noted are these: foliage application, 320 g/ha. The essentials:
as §1

A further test relates to persian speedwell. Put plainly: Test Example 4: herbicidal effect by soil treatment (Table 19, symbol R). The conditions noted are these: amount of applied herbicide 320 g/ha. The format is in vivo, Persian speedwell (Veronica persica). The essentials: as §3
Another test concerns Chinese sprangletop. Briefly: Test Example 3: herbicidal effect by foliage application, Wagner pot (Table 18, symbol D). The format is in vivo, chinese sprangletop (Leptochloa chinensis). A digest of the protocol:
(§4)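 Plants were sown in alluvial soil held under 0.1–0.5 cm standing water and grown 14 days in a greenhouse at 25–30 °C. An emulsifiable formulation, water-diluted to the set dose, was then sprayed onto the foliage, and effects were scored three weeks later using previously defined criteria.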

Test [6] concerns windgrass. Briefly: Test Example 4: herbicidal effect by soil treatment (Table 19, symbol L). The format is in vivo, windgrass (Apera spica-venti). The conditions noted are these: amount of applied herbicide 320 g/ha. The essentials: as §3
The test system of another test is redroot pigweed. Put plainly: Test Example 5: herbicidal effect by foliage application, plastic box (Table 20, symbol N). In kind it is in vivo, redroot pigweed (Amaranthus retroflexus). The conditions noted are these: foliage application, 320 g/ha. The essentials:
as §1

Test [7] has as its system Japanese bulrush. Briefly: Test Example 2: herbicidal activity, application during weed generation under submerged conditions (Table 17, symbol B). In kind it is in vivo, Japanese bulrush (Schoenoplectus juncoides). The conditions noted are these: AAH 320 g/ha; application during weed generation, submerged conditions. The essentials: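 In this pot test, flooded alluvial soil (water depth 4 cm) holds all three species sown as a mixture. Once seedlings have one to two leaves, the compound's emulsion, thinned with water to the intended dose, is poured on the water; grading follows after three weeks on the earlier criteria.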

In test [8] the test system is barnyard grass. Briefly: Test Example 3: herbicidal effect by foliage application, Wagner pot (Table 18, symbol H). The format is in vivo, barnyard grass (Echinochloa crus-galli). The essentials: as §4
In test [9] the test system is barnyard grass. Put plainly: Test Example 5: herbicidal effect by foliage application, plastic box (Table 20, symbol H). In kind it is in vivo, barnyard grass (Echinochloa crus-galli). The conditions noted are these: foliage application, 320 g/ha. The essentials:
as §1

The mark [10] stands for this setting: evaluated three weeks after application.
[11] abbreviates: amount of applied herbicide 320 g/ha.

Regarding `CCCC(=O)Oc1c(C)nn(C)c(=O)c1-c1c(-c2ccc(OCC)cc2)sc2ccccc12` [1-014], the “herbicidal effect grade, O: lambsquarters” value in the test on lambsquarters [1] (three weeks after application) is 2 (Herbicidal rate of 20% or more and less than 40%). Further, the “herbicidal effect grade, J: blackgrass” value with blackgrass (three weeks after application) is on record as 0 (Herbicidal rate of 5% or less (almost no effect)). Moreover, in the test with Japanese bulrush [2], the “Herbicidal effect on B: Japanese bulrush (grade 0-5)” value is recorded as 5 (Herbicidal rate of 90% or more (almost completely withered)). For the same compound, the “herbicidal effect rating, H: barnyard grass” value with barnyard grass [3] is 2 (Herbicidal rate of 20% or more and less than 40%). In addition, in the test on windgrass [4], the “herbicidal effect grade, L: windgrass” value is 0 (Herbicidal rate of 5% or less (almost no effect)). Also, the “herbicidal effect rating, O: lambsquarters” value in the test on lambsquarters [5] was 2 (Herbicidal rate of 20% or more and less than 40%). Further, the “herbicidal effect rating, F: southern crabgrass” value in the test on southern crabgrass is 0 (Herbicidal rate of 5% or less (almost no effect)). Also, in the test with late watergrass, the “Herbicidal effect on A: late watergrass (grade 0-5)” value is given as 5 (Herbicidal rate of 90% or more (almost completely withered)). The “herbicidal effect grade, P: chickweed” value in the test on chickweed (three weeks after application) is on record as 5 (Herbicidal rate of 90% or more (almost completely withered)). Also, in the test with persian speedwell, the “herbicidal effect rating, R: persian speedwell” value is on record as 5 (Herbicidal rate of 90% or more (almost completely withered)). Besides, the “herbicidal effect on D (Chinese sprangletop), rating 0-5” value in the test with Chinese sprangletop (320 g/ha) is 0 (Herbicidal rate of 5% or less (almost no effect)). Moreover, the “herbicidal effect rating, L: windgrass” value in the test on windgrass [6] is listed as 0 (Herbicidal rate of 5% or less (almost no effect)). Besides, in the test with redroot pigweed (three weeks after application), the “herbicidal effect grade, N: redroot pigweed” value is reported as 0 (Herbicidal rate of 5% or less (almost no effect)). The “herbicidal effect rating, B: Japanese bulrush” value with Japanese bulrush [7] was 3 (Herbicidal rate of 40% or more and less than 70%). Besides, the “herbicidal effect on H (barnyard grass), rating 0-5” value in the test with barnyard grass [8] (320 g/ha) was 4 (Herbicidal rate of 70% or more and less than 90%). For the same compound, the “herbicidal effect grade, H: barnyard grass” value with barnyard grass [9] (three weeks after application) was 4 (Herbicidal rate of 70% or more and less than 90%).

On to `CCCC(=O)Oc1c(C)nn(C)c(=O)c1-c1c(-c2ccc(SCC)cc2)sc2ccc(F)cc12` [2-245], for which the “herbicidal effect on O: lambsquarters (criteria 0-5)” value in the test on lambsquarters [1] (setting [10]) is reported as 5 (Herbicidal rate of 90% or more (almost completely withered)). Moreover, the “herbicidal effect on J: blackgrass (criteria 0-5)” value in the test with blackgrass (setting [10]) was 4 (Herbicidal rate of 70% or more and less than 90%). Further, the “Herbicidal effect on B: Japanese bulrush (grade 0-5)” value in the test with Japanese bulrush [2] was 3 (Herbicidal rate of 40% or more and less than 70%). In addition, the “herbicidal effect on H: barnyard grass” value with barnyard grass [3] and in the test on barnyard grass [8] (setting [11]) was 5 (Herbicidal rate of 90% or more (almost completely withered)) in each case. The “herbicidal effect on O: lambsquarters” value in the test on lambsquarters [5] was 4 (Herbicidal rate of 70% or more and less than 90%). The “herbicidal effect on F: southern crabgrass” value in the test on southern crabgrass is 4 (Herbicidal rate of 70% or more and less than 90%). The “Herbicidal effect on A: late watergrass (grade 0-5)” value in the test with late watergrass is 4 (Herbicidal rate of 70% or more and less than 90%). Further, in the test with chickweed (setting [10]), the “herbicidal effect on P: chickweed (criteria 0-5)” value is listed as 5 (Herbicidal rate of 90% or more (almost completely withered)). The “herbicidal effect on R: persian speedwell” value in the test with persian speedwell is listed as 5 (Herbicidal rate of 90% or more (almost completely withered)). Also, the “herbicidal effect on D: Chinese sprangletop” value with Chinese sprangletop (setting [11]) is 4 (Herbicidal rate of 70% or more and less than 90%). For the same compound, the “herbicidal effect on L: windgrass” value in the test with windgrass [6] is 3 (Herbicidal rate of 40% or more and less than 70%). The “herbicidal effect on N: redroot pigweed (criteria 0-5)” value in the test on redroot pigweed (setting [10]) was 5 (Herbicidal rate of 90% or more (almost completely withered)). Further, the “herbicidal effect rating, B: Japanese bulrush” value with Japanese bulrush [7] was 3 (Herbicidal rate of 40% or more and less than 70%). Further, the “herbicidal effect on H: barnyard grass (criteria 0-5)” value with barnyard grass [9] (setting [10]) is recorded as 5 (Herbicidal rate of 90% or more (almost completely withered)).

Values taken from patent US20230085307A1, “PYRIDAZINONE COMPOUND AND HERBICIDE” (NISSAN CHEMICAL CORPORATION, priority 2019, published 2023).
